Measured values taken from ChEMBL document CHEMBL1131492 (J Med Chem, 1998).

What was measured:
[1] = biological target: Sodium-dependent dopamine transporter (Rattus norvegicus) (UniProt P23977); assay: Dopamine (DA) uptake; format: functional
[2] = biological target: T1, Sodium-dependent dopamine transporter (Rattus norvegicus, UniProt P23977); assay: Inhibition [3H]DA uptake in rat striatal synaptosomes.; format: functional, subcellular, Brain
[3] = biological target: Sodium-dependent dopamine transporter (Rattus norvegicus) (UniProt P23977); assay: Value is difference between the cocaine binding and DA uptake
[4] = biological target: T1, Sodium-dependent dopamine transporter; assay: Inhibition [3H]-cocaine binding to Cocaine receptor in rat striatal membranes.; format: cell membranes
[5] = biological target: Sodium-dependent dopamine transporter (Rattus norvegicus) (UniProt P23977); assay: Ability to inhibit binding of [3H]cocaine to Cocaine receptor in rat brain; format: tissue-based
[6] = biological target: Sodium-dependent dopamine transporter (Rattus norvegicus) (UniProt P23977); assay: Potency ratio for Cocaine receptor (IC50 cocaine /IC50 compound)

T1 sequence (P23977 whole entry): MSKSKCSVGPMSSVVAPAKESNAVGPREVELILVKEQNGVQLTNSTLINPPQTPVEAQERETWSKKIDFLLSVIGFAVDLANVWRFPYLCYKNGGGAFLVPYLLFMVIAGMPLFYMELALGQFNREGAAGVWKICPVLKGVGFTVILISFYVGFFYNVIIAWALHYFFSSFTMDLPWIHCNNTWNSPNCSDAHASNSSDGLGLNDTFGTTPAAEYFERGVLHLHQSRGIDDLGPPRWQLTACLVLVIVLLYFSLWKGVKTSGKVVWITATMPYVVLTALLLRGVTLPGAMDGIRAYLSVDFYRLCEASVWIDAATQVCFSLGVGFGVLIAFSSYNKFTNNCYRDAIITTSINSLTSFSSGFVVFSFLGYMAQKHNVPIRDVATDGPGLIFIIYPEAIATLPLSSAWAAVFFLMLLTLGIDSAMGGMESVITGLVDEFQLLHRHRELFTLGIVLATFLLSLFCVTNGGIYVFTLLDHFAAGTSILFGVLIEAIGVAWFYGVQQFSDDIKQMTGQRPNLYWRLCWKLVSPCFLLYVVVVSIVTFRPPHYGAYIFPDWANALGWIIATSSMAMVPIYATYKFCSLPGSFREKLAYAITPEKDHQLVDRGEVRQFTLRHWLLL
Sodium-dependent dopamine transporter (Rattus norvegicus), sequence (P23977 whole entry): as above

| Compound | Log potency ratio [1] | IC50 [2] | Log potency ratio [3] | IC50 [4] | Log potency ratio [5] | Log potency ratio [6] |
| --- | --- | --- | --- | --- | --- | --- |
| COC(=O)[C@@H]1C2CC[C@H](C[C@H]1CCc1ccccc1)N2C | 0.47 | 70.5 nM | 0.54 | 9.94 nM | -0.77 | 1.01 |
| COC(=O)C1C(Cc2ccc3ccccc3c2)CC2CCC1N2C (centres undefined) | – | 1350 nM | – | – | – | – |
| COC(=O)[C@@H]1C2CC[C@H](C[C@H]1/C=C/c1ccccc1)N2C | 1.55 | 5.88 nM | 0.13 | 2.1 nM | 0.48 | 1.68 |
| COC(=O)[C@@H]1C2CC[C@H](C[C@H]1c1ccc(-c3ccccc3)cc1)N2C | 0.85 | 29.4 nM | 0.14 | 10.3 nM | 0.9 | 0.99 |
| COC(=O)C1C(OC(=O)c2cccc3ccccc23)CC2CCC1N2C (centres undefined) | -0.76 | 1190 nM | -0.11 | 742 nM | 0.01 | -0.87 |
| COC(=O)C1C(c2ccc(N)cc2)CC2CCC1N2C (centres undefined) | 0.18 | – | -0.32 | – | 2.58 | -0.14 |
| C=C(c1ccccc1)C1CC2CCC(C1C(=O)OC)N2C (centres undefined) | 0.18 | 138 nM | -0.03 | 71.6 nM | -0.83 | 0.15 |
| COC(=O)[C@@H]1C2CC[C@H](C[C@@H]1c1ccccc1)N2C | 0.66 | – | -0.13 | – | – | 0.53 |
| COC(=O)C1C(Cc2ccccc2)CC2CCC1N2C (centres undefined) | – | 1020 nM | – | – | – | – |
| COC(=O)[C@H]1C2CC[C@H](C[C@H]1c1ccc3ccccc3c1)N2C | 1.77 | 3.53 nM | -0.29 | 3.32 nM | 1.66 | 1.48 |
| COC(=O)C1C(c2ccc([N+](=O)[O-])cc2)CC2CCC1N2C (centres undefined) | – | – | -0.134 | – | 1.48 | 0.006 |
| COC(=O)[C@@H]1C2CC[C@H](C[C@H]1OC(=O)c1ccc3ccccc3c1)N2C | -0.59 | 813 nM | 0.08 | 327 nM | 0.07 | -0.51 |
| COC(=O)C1C(CCCc2ccccc2)CC2CCC1N2C (centres undefined) | -1.11 | 2680 nM | 0.58 | 344 nM | -1.84 | -0.53 |
| COC(=O)[C@H]1[C@@H](c2ccc(F)cc2)C[C@H]2CC[C@H]1N2C | 0.94 | – | -0.35 | – | -0.49 | 0.59 |
